The results in this text go back to US9682925B2, “Cyclopropaneamine compound” (TAKEDA PHARMACEUTICAL COMPANY LIMITED, priority 2011, dated 2017).

What all share (assay type): biochemical
The target of one assay is T1, human LSD1(171-852) (Homo sapiens, UniProt O60341).
T1 construct: to give hLSD1(171-852) purified product; made in house; host or cells: Escherichia coli C43(DE3) pLysS
Kind of assay: Measurement of LSD1 inhibitory activity (time-resolved fluorescence, biotin-histone H3 mono methylated K4 peptide).

The target of a further assay is T2, MAO-B (Homo sapiens, UniProt P27338).
T2 construct: purchased Sigma-Aldrich Co. LLC
T2 sequence (P27338 1-520): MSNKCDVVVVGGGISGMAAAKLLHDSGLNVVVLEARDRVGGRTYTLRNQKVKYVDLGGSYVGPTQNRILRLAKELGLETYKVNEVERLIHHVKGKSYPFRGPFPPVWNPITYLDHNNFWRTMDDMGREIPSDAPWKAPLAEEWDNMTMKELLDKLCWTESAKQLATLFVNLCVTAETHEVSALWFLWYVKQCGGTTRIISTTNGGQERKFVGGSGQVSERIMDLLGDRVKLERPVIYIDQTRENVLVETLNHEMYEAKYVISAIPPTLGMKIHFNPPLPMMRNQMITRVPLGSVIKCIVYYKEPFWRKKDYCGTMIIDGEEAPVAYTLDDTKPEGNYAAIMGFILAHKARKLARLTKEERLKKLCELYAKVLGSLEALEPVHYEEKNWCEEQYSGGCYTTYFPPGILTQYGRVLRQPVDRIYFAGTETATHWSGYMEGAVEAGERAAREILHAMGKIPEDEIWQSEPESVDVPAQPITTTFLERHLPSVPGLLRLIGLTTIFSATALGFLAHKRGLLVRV
Kind of assay: Measurement of MAO-B inhibitory activity (MAO-Glo Assay). The gist of the method: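 Percent inhibition was calculated from luciferin-based luminescence, corrected with a blank lacking enzyme and a control lacking compound. The reaction ran 60 min at room temperature after adding MAO substrate (16 µM as added). This followed a 10 min compound–enzyme preincubation in HEPES pH 7.5 buffer.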

For a further assay, the target named is T3, MAO-A (Homo sapiens, UniProt P21397).
T3 construct: purchased Sigma-Aldrich Co. LLC
T3 sequence (P21397 1-527): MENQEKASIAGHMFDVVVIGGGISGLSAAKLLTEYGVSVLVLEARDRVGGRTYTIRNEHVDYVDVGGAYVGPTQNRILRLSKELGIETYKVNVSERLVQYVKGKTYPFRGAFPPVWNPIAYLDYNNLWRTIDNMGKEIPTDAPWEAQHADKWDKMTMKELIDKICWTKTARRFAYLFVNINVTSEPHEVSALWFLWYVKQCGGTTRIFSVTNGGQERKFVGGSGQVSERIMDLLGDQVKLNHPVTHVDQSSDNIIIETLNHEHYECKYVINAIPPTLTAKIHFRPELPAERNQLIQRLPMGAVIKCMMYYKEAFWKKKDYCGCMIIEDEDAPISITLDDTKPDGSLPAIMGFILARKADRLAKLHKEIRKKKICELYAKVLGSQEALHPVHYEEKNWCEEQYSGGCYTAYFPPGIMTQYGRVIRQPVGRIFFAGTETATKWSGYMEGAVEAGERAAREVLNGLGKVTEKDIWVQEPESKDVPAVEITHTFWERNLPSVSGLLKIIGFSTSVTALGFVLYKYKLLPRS
Nature of the assay: Measurement of MAO-A inhibitory activity (MAO-Glo Assay). A digest of the protocol:
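MAO-A (400 ng) was pre-incubated with compound 10 min at room temperature in 100 mM HEPES pH 7.5, 5% glycerol, then MAO substrate (160 μM stock) added for 60 min. Luciferin detection reagent, 20 min, luminescence; % inhibition against no-compound control minus no-enzyme blank.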

Structures can show the parent of a compound that is named as a salt. Where two headings read alike, the source gives them in different places. Bounds are passed on as bounds.

Regarding `CS(=O)(=O)Nc1ccc(C(=O)Nc2ccc([C@@H]3C[C@H]3NCC3CC3)cc2)cc1` (relative stereo) [Example 135, N-(4-{trans-2-[(cyclopropylmethyl)amino]cyclopropyl}phenyl)-4-[(methylsulfonyl)amino]benzamide hydrochloride], the IC50 on human LSD1(171-852) (read-out: LSD1 IC50 value) was 0.1 µM; at MAO-B, above 10 µM; against MAO-A, above 10 µM.

On to `CS(=O)(=O)Nc1cccc(C(=O)Nc2ccc([C@@H]3C[C@H]3NCC3CC3)cc2)c1` (relative stereo) [Example 136, N-(4-{trans-2-[(cyclopropylmethyl)amino]cyclopropyl}phenyl)-3-[(methylsulfonyl)amino]benzamide hydrochloride], for which the IC50 on human LSD1(171-852) (read-out: LSD1 IC50 value) is below 0.1 µM; against MAO-B it was above 10 µM; on MAO-A, above 10 µM.

`O=C(Nc1ccc([C@@H]2C[C@H]2NCC2CC2)cc1)c1cc(-c2ccccc2)cs1` (relative stereo) [Example 137, N-(4-{trans-2-[(cyclopropylmethyl)amino]cyclopropyl}phenyl)-4-phenylthiophene-2-carboxamide hydrochloride]: the results for the IC50 on human LSD1(171-852) (read-out: LSD1 IC50 value), on MAO-B and on MAO-A were below 0.1 µM, above 10 µM and 4.2 µM, respectively.

Turning to `O=C(Nc1ccc([C@@H]2C[C@H]2NCC2CC2)cc1)c1ccc(-c2ncccn2)cc1` (relative stereo) [Example 138, N-(4-{trans-2-[(cyclopropylmethyl)amino]cyclopropyl}phenyl)-4-(pyrimidin-2-yl)benzamide hydrochloride], the IC50 at human LSD1(171-852) (read-out: LSD1 IC50 value) was below 0.1 µM; at MAO-B, above 10 µM; at MAO-A, above 10 µM.

On to `O=C(Nc1ccc([C@@H]2C[C@H]2NCC2CC2)cc1)c1cccc(-c2ncccn2)c1` (relative stereo) [Example 139, N-(4-{trans-2-[(cyclopropylmethyl)amino]cyclopropyl}phenyl)-3-(pyrimidin-2-yl)benzamide hydrochloride], for which the concentration for half-maximal inhibition (IC50) is below 0.1 µM on human LSD1(171-852) (read-out: LSD1 IC50 value), above 10 µM against MAO-B and 8.2 µM against MAO-A.

With `O=C(Nc1ccc([C@@H]2C[C@H]2NCC2CC2)cc1)c1ccccc1` (relative stereo) [Example 140, N-(4-{trans-2-[(cyclopropylmethyl)amino]cyclopropyl}phenyl)benzamide hydrochloride], the figures for the IC50 at human LSD1(171-852) (read-out: LSD1 IC50 value), at MAO-B and at MAO-A were below 0.1 µM, above 10 µM and above 10 µM, respectively.

On to `O=C(Nc1ccc([C@@H]2C[C@H]2NCC2CC2)cc1)C1CCCCC1` (relative stereo) [Example 141, N-(4-{trans-2-[(cyclopropylmethyl)amino]cyclopropyl}phenyl)-cyclohexanecarboxamide hydrochloride], for which the figures for the IC50 at human LSD1(171-852) (read-out: LSD1 IC50 value), against MAO-B and on MAO-A were below 0.1 µM, above 10 µM and above 10 µM, respectively.

Consider `CN(C)c1ccccc1CN[C@@H]1C[C@H]1c1ccc(NC(=O)c2cccc(C(F)(F)F)c2)cc1` (relative stereo) [Example 142, N-{4-[trans-2-{[2-(dimethylamino)benzyl]amino}cyclopropyl]phenyl}-3-(trifluoromethyl)benzamide hydrochloride], for which the IC50 at human LSD1(171-852) (read-out: LSD1 IC50 value) is 0.1 µM; against MAO-B it was above 10 µM; against MAO-A, above 10 µM.

Consider `O=C1c2ccccc2C(=O)N1c1ccc([C@@H]2C[C@H]2NCC2CC2)cc1` (relative stereo) [Example 143, 2-(4-{trans-2-[(cyclopropylmethyl)amino]cyclopropyl}phenyl)-1H -isoindole-1,3(2H)-dione hydrochloride], for which the IC50 at human LSD1(171-852) (read-out: LSD1 IC50 value) is below 0.1 µM; at MAO-B it was above 10 µM; against MAO-A, 4.5 µM.

Turning to `O=C1c2ccccc2CN1c1ccc([C@@H]2C[C@H]2NCC2CC2)cc1` (relative stereo) [Example 144, 2-(4-{trans-2-[(cyclopropylmethyl)amino]cyclopropyl}phenyl)isoindolin-1-one hydrochloride], the IC50 on human LSD1(171-852) (read-out: LSD1 IC50 value) is 0.2 µM; against MAO-B, above 10 µM; on MAO-A, above 10 µM.

Turning to `NS(=O)(=O)c1cccc(C(=O)Nc2ccc([C@@H]3C[C@H]3NCC3CC3)cc2)c1` (relative stereo) [Example 145, N-(4-{trans-2-[(cyclopropylmethyl)amino]cyclopropyl}phenyl)-3-sulfamoylbenzamide hydrochloride], the IC50 at human LSD1(171-852) (read-out: LSD1 IC50 value) is below 0.1 µM; against MAO-B, above 10 µM; at MAO-A, above 10 µM.

On to `O=C(Nc1ccc([C@@H]2C[C@H]2NCC2CC2)cc1)c1cccc(Cn2ccnc2)c1` (relative stereo) [Example 146, N-(4-{trans-2-[(cyclopropylmethyl)amino]cyclopropyl}phenyl)-3-(1H-imidazol-1-ylmethyl)benzamide hydrochloride], for which the IC50 is below 0.1 µM on human LSD1(171-852) (read-out: LSD1 IC50 value), above 10 µM against MAO-B and 6.7 µM against MAO-A.

With `O=C(Nc1ccc([C@@H]2C[C@H]2NCC2CC2)cc1)c1cccc(Cn2cncn2)c1` (relative stereo) [Example 147, N-(4-{trans-2-[(cyclopropylmethyl)amino]cyclopropyl}phenyl)-3-(1H-1,2,4-triazol-1-ylmethyl)benzamide hydrochloride], the IC50 is below 0.1 µM on human LSD1(171-852) (read-out: LSD1 IC50 value), above 10 µM on MAO-B and above 10 µM at MAO-A.

For the compound `O=C(Nc1ccc([C@@H]2C[C@H]2NCC2CC2)cc1)c1cccc(-n2ccnc2)c1` (relative stereo) [Example 148, N-(4-{trans-2-[(cyclopropylmethyl)amino]cyclopropyl}phenyl)-3-(1H-imidazol-1-yl)benzamide hydrochloride], the IC50 on human LSD1(171-852) (read-out: LSD1 IC50 value) is below 0.1 µM; against MAO-B, above 10 µM; at MAO-A, 8.3 µM.

For `CN1C2CCC1CC(N[C@@H]1C[C@H]1c1ccc(NC(=O)c3cccc(C(F)(F)F)c3)cc1)C2` (relative stereo) [Example 149, N-(4-{trans-2-[(8-methyl-8-azabicyclo[3.2.1]oct-3-yl)amino]cyclopropyl}phenyl)-3-(trifluoromethyl)benzamide dihydrochloride], the IC50 is below 0.1 µM against human LSD1(171-852), above 10 µM against MAO-B and above 10 µM on MAO-A.

Turning to `CN1CCC(N[C@@H]2C[C@H]2c2ccc(N(C)C(=O)c3cccc(C(F)(F)F)c3)cc2)CC1` (relative stereo) [Example 150, N-methyl-N-(4-{trans-2-[(1-methylpiperidin-4-yl)amino]cyclopropyl}phenyl)-3-(trifluoromethyl)benzamide dihydrochloride], the IC50 at human LSD1(171-852) (read-out: LSD1 IC50 value) is below 0.1 µM; at MAO-B, above 10 µM; on MAO-A, above 10 µM.

Turning to `O=C(Nc1ccc([C@@H]2C[C@H]2NC2CCS(=O)(=O)CC2)cc1)c1cccc(C(F)(F)F)c1` (relative stereo) [Example 151, N-(4-{trans-2-[(1,1-dioxidotetrahydro-2H-thiopyran-4-yl)amino]cyclopropyl}phenyl)-3-(trifluoromethyl)benzamide hydrochloride], the IC50 at human LSD1(171-852) (read-out: LSD1 IC50 value) is below 0.1 µM; on MAO-B it was above 10 µM; on MAO-A, above 10 µM.

In the case of `O=C(Nc1ccc([C@@H]2C[C@H]2NC2CCC(F)(F)CC2)cc1)c1cccc(C(F)(F)F)c1` (relative stereo) [Example 154, N-(4-{trans-2-[(4,4-difluorocyclohexyl)amino]cyclopropyl}phenyl)-3-(trifluoromethyl)benzamide hydrochloride], the values for the IC50 at human LSD1(171-852) (read-out: LSD1 IC50 value), at MAO-B and against MAO-A were below 0.1 µM, above 10 µM and above 10 µM, respectively.

With `CN1CCC(CN[C@@H]2C[C@H]2c2ccc(NC(=O)c3cccc(C(F)(F)F)c3)cc2)CC1` (relative stereo) [Example 155, N-{4-[trans-2-{[(1-methylpiperidin-4-yl)methyl]amino}cyclopropyl]phenyl}-3-(trifluoromethyl)benzamide dihydrochloride], the IC50 was below 0.1 µM on human LSD1(171-852) (read-out: LSD1 IC50 value), above 10 µM on MAO-B and above 10 µM against MAO-A.

Usually IC50 stands for the point on the concentration scale where inhibition reaches its midpoint.
